Measurements published in paper PMC3581553, “New Approaches of PARP-1 Inhibitors in Human Lung Cancer Cells and Cancer Stem-Like Cells by Some Selected Anthraquinone-Derived Small Molecules” (PLoS ONE, 2013).
Read-outs that look alike come from different tables or passages of the source.

How the values were obtained:
NCI-H522 = test: NCI-60 drug screen (SRB), NSCLC line NCI-H522; format: cell-based, human; conditions: for GI50 / CC50: Homo sapiens; for CC50: read-out: LC50 (the source's name)
Protocol: (§1) As a primary screening, seven selected compounds were submitted to the National Cancer Institute (NCI) cell lines screen for evaluation of their anticancer activity. From the data analysis, it follows that approximately 95% of the actives from the 60 cell lines screen can be identified. The detailed methods used for the 60 cell lines panel have been described elsewhere [54]–[59]. Briefly, cellular protein levels were determined after 48 hours of drug exposure by SRB colorimetry. Through the use of a time zero cell control, the cell growth can be determined for each cell line thus allowing calculations of GI50, TGI, and LC50. Comparison to plates not exposed to drug permits determination of concentration and times of exposure conferring GI50, TGI, and LC50. […] By these criteria, seven compounds reported from our compounds bank were all active and passed on for evaluation in the full panel of 60 human tumor cell lines. The panel is organized into nine subpanels representing diverse histology: leukemia, melanoma, and cancers of the lung, colon, kidney, ovary, breast, prostate, and central nervous system.

HEL299 cells = test: MTT cytotoxicity assay, HEL299 normal fibroblasts; format: cell-based; conditions: Homo sapiens, HEL 299, 48 h of drug exposure
Protocol: Non-small cell lung cancer cells A549 and Oct-4- and Nanog-overexpressed A549 clone (clone #3; A3), presented the properties of cancer stem-like cells, as well as epithelial-mesenchymal transdifferentiation, according to our previous study. They were grown in the same conditions as RPMI 1640 media supplemented with 10% fetal bovine serum (FBS), 100 units/mL penicillin, […] streptomycin, 1 mM sodium pyruvate, 2 mM l-glutamine and 1% non-essential amino acid (NEAA) in a humidified atmosphere with 5% CO2 at 37°C. Normal fibroblast cells HEL299 from American Type Culture Collection (ATCC) were grown in MEM media supplemented with 10% FBS, 100 units/mL penicillin, […] streptomycin, 1 mM sodium pyruvate, 2 mM l-glutamine and 1% NEAA, in a humidified atmosphere with 5% CO2 at 37°C.
The tetrazolium reagent (MTT; 3-(4,5-dimethylthiazol-2-yl)-2,5-diphenyl-tetrazolium bromide, USB) was designed to yield a colored formazan upon metabolic reduction by viable cells, [61]. Approximately 5×10^4 cells were plated onto each well of a 24-well plate and incubated in 5% CO2 at 37°C for 24 hours. To assess the in vitro cytotoxicity, each compound was dissolved in DMSO and prepared immediately before the experiments and then was diluted into the complete medium before being added to cell cultures. Test compounds were then added to the culture medium in various designated concentrations. After 48 hours, an amount of 100 µl of MTT was added to each well, and the samples were incubated at 37°C for 2 h. 100 µl DMSO was added to each well. The absorbency at 560 nm and reference absorbency at 670 nm were measured using an ELISA reader.

NCI-H23 = test: NCI-60 drug screen (SRB), NSCLC line NCI-H23; format: cell-based, human; conditions: for GI50 / CC50: Homo sapiens; for CC50: read-out: LC50 (the source's name)
Protocol: as §1

A549/ATCC = test: NCI-60 drug screen (SRB), NSCLC line A549/ATCC; format: cell-based, human; conditions: for GI50 / LC50 (concentration killing 50% of cells): Homo sapiens
Protocol: as §1

HOP-62 = test: NCI-60 drug screen (SRB), NSCLC line HOP-62; format: cell-based, human; conditions: for GI50 / CC50: Homo sapiens; for CC50: read-out: LC50 (the source's name)
Protocol: as §1

EKVX = test: NCI-60 drug screen (SRB), NSCLC line EKVX; format: cell-based, human; conditions: for GI50 / LC50: Homo sapiens
Protocol: as §1

[1] = 48 hours drug exposure, SRB, read-out: GI50
[2] = NCI in vitro 60-cell lines Drug Screen, read-out: -Log GI50 (converted)

Row | SMILES | TGI (NCI-H522; 48 hours drug exposure, SRB) [µM] | GI50 (NCI-H522; [1]) [µM] | CC50 (NCI-H522; 48 hours drug exposure, SRB) [µM] | GI50 (NCI-H522; [2]) [µM] | IC50 (HEL299 cells) [µM] | TGI (NCI-H23; 48 hours drug exposure, SRB) [µM] | GI50 (NCI-H23; [1]) [µM] | CC50 (NCI-H23; 48 hours drug exposure, SRB) [µM] | GI50 (NCI-H23; [2]) [µM] | TGI (A549/ATCC; 48 hours drug exposure, SRB) [µM] | GI50 (A549/ATCC; [1]) [µM] | GI50 (A549/ATCC; [2]) [µM] | TGI (HOP-62; 48 hours drug exposure, SRB) [µM] | GI50 (HOP-62; [1]) [µM] | CC50 (HOP-62; 48 hours drug exposure, SRB) [µM] | GI50 (HOP-62; [2]) [µM] | TGI (EKVX; 48 hours drug exposure, SRB) [µM] | GI50 (EKVX; [1]) [µM] | GI50 (EKVX; [2]) [µM] | LC50 (concentration killing 50% of cells) (A549/ATCC; 48 hours drug exposure, SRB) [µM] | further results
1 | CN(C)CCCSc1nc2ccc3c(c2[nH]1)C(=O)c1ccccc1C3=O [NSC747854] | 24.9 | 1.22 | 50 | 12.3 | 27.8 | 19.7 | 5.73 | 46.9 | 5.75 | 12.6 | 3.26 | 3.24 | 32.3 | 5.9 | 48.9 | 5.89 | 20.1 | 4.2 | 4.17 | – | –
2 | O=C(CCN1CCCC1)Nc1ccc2c(c1)C(=O)c1cc(NC(=O)CCN3CCCC3)ccc1C2=O [NSC746366] | 17.1 | 3.41 | > 100 | 3.39 | 13.4 | 17.3 | 2.38 | > 100 | 2.4 | 12.7 | 2.2 | 2.19 | 11.6 | 2.48 | 45.4 | 2.51 | 20.4 | 3.57 | 3.55 | 74.7 | LC50 (EKVX; 48 hours drug exposure, SRB): > 100 µM
3 | CN1CCN(Cc2nc3ccc4c(c3[nH]2)C(=O)c2ccccc2C4=O)CC1 [NSC749235] | 29.0 | 13.8 | 61 | 13.8 | 19.6 | 30.1 | 10.7 | 84.8 | 10.7 | 24.3 | 7.58 | 7.59 | 30.5 | 19.4 | 95.4 | 9.33 | 28.8 | 6.69 | 6.76 | 67.2 | LC50 (EKVX; 48 hours drug exposure, SRB): > 100 µM
4 | CN(C)CC(=O)Nc1ccc2c(c1)C(=O)c1cc(NC(=O)CN(C)C)ccc1C2=O [NSC746364] | 13.1 | 1.27 | 66.4 | 1.26 | 5.67 | 28.1 | 11 | 71.8 | 11 | 4.43 | 1.45 | 1.45 | 20.5 | 4.56 | 60.8 | 4.57 | 31.4 | 12.8 | 12.9 | > 100 | LC50 (EKVX; 48 hours drug exposure, SRB): 77.4 µM
5 | CCN(CC)CCC(=O)Nc1ccc2c(c1)C(=O)c1cc(NC(=O)CCN(CC)CC)ccc1C2=O [NSC746365] | 4.59 | 1.4 | 19.3 | 1.38 | 7.19 | 3.55 | 1.53 | 8.27 | 1.51 | 3.95 | 1.44 | 1.45 | 5.80 | 1.73 | 24 | 1.74 | 11.0 | 3.05 | 3.02 | 15.5 | LC50 (EKVX; 48 hours drug exposure, SRB): 34.6 µM
6 | Cc1ccc(C(=O)Nc2c(NC(=O)CCl)ccc3c2C(=O)c2ccccc2C3=O)cc1 [NSC749232] | 2.03 | 8.95 | – | 0.891 | 27.1 | 8.28 | 1.78 | 31.4 | 1.78 | 29.2 | 12.3 | 12.3 | 9.49 | 2.97 | 24.4 | 2.95 | 14.9 | 1.98 | 2 | > 100 | LC50 (EKVX; 48 hours drug exposure, SRB): > 100 µM
